Data reported in patent US20250171430A1, “PYRAZOLYL COMPOUNDS AS KV7 CHANNEL ACTIVATORS” (Biohaven Therapeutics Ltd., priority 2022, published 2025).

These compounds were tested against T1, Kv7.2/7.3 (Homo sapiens, UniProt O43525+O43526) (assay: Kv7.2/7.3 Activation Assay (Thallium Flux Assay)). Details: hKV7.2/7.3 cell line; test compound at single concentration of 10 μM; fluorescence at 90 sec normalized to positive control (retigabine, 30 μM).
T1 construct: Kv7.2 tetracycline-induced, Kv7.3 constitutive
Type: cell-based
How it was run: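 Human Kv7.2/7.3 cells with Kv7.2 induced overnight by 10 ng/mL tetracycline were loaded with FluxOR II Green for 1 h at 37 °C. Compounds were tested at 10 μM in 0.1% DMSO/extracellular solution, pH 7.4. Thallium/potassium stimulus was added after a 15 s baseline, and 90 s fluorescence (ex 475/em 530 nm) was normalized to 30 μM retigabine.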

SMILES	Kv7.2/7.3 Activity
Cn1nc(NC(=O)C2CCC2)c(C2CCC2)c1-c1ccc(OC(F)(F)F)cc1 [Compound 190, N-(4-cyclobutyl-1-methyl-5-(4-(trifluoromethoxy)phenyl)-1H-pyrazol-3-yl)cyclobutanecarboxamide]	++ (“++” High Activity ≥ 0.7)
Cn1nc(NC(=O)C2CC(C(F)(F)F)C2)c(C2CCC2)c1-c1ccc(OC(F)(F)F)cc1 (stereo not drawn) [Compound 191, N-(4-cyclobutyl-1-methyl-5-(4-(trifluoromethoxy)phenyl)-1H-pyrazol-3-yl)-3-(trifluoromethyl)cyclobutane-1-carboxamide]	++ (“++” High Activity ≥ 0.7)
Cn1nc(NC(=O)C2CC(F)(F)C2)c(C2CCC2)c1-c1ccc(F)c(F)c1 [Compound 192, N-(4-cyclobutyl-5-(3,4-difluorophenyl)-1-methyl-1H-pyrazol-3-yl)-3,3-difluorocyclobutane-1-carboxamide]	++ (“++” High Activity ≥ 0.7)
Cn1nc(NC(=O)C2CC(F)(F)C2)c(C2CCC2)c1-c1cccc(F)c1 [Compound 193, N-(4-cyclobutyl-5-(3-fluorophenyl)-1-methyl-1H-pyrazol-3-yl)-3,3-difluorocyclobutane-1-carboxamide]	++ (“++” High Activity ≥ 0.7)
Cn1nc(NC(=O)C2CC(F)(F)C2)c(C2CCC2)c1-c1ccc(Cl)s1 [Compound 194, N-(5-(5-chlorothiophen-2-yl)-4-cyclobutyl-1-methyl-1H-pyrazol-3-yl)-3,3-difluorocyclobutane-1-carboxamide]	++ (“++” High Activity ≥ 0.7)
Cn1nc(NC(=O)C2CC(F)(F)C2)c(C2CCC2)c1-c1cnc(C(F)(F)F)s1 [Compound 195, N-(4-cyclobutyl-1-methyl-5-(2-(trifluoromethyl)thiazol-5-yl)-1H-pyrazol-3-yl)-3,3-difluorocyclobutane-1-carboxamide]	+ (“+” Moderate Activity 0.15-0.7)
Cn1nc(NC(=O)C(C2CC2)C2CC2)c(C2CCC2)c1-c1ccc(F)cc1 [Compound 196, N-(4-cyclobutyl-5-(4-fluorophenyl)-1-methyl-1H-pyrazol-3-yl)-2,2-dicyclopropylacetamide]	+ (“+” Moderate Activity 0.15-0.7)
Cn1nc(NC(=O)c2ccccc2)c(C2CCC2)c1-c1ccc(F)cc1 [Compound 197, N-(4-cyclobutyl-5-(4-fluorophenyl)-1-methyl-1H-pyrazol-3-yl)benzamide]	++ (“++” High Activity ≥ 0.7)
Cn1nc(NC(=O)c2ccccc2)c(C2CCC2)c1-c1ccc(OC(F)(F)F)cc1 [Compound 198, N-(4-cyclobutyl-1-methyl-5-(4-(trifluoromethoxy)phenyl)-1H-pyrazol-3-yl)benzamide]	+ (“+” Moderate Activity 0.15-0.7)
Cn1nc(NC(=O)C2(C)CC(F)(F)C2)c(C2CCC2)c1-c1ccc(F)cc1 [Compound 199, N-(4-cyclobutyl-5-(4-fluorophenyl)-1-methyl-1H-pyrazol-3-yl)-3,3-difluoro-1-methylcyclobutane-1-carboxamide]	++ (“++” High Activity ≥ 0.7)
Cn1nc(NC(=O)C2(C)CC(F)(F)C2)c(C2CCC2)c1-c1ccc(OC(F)(F)F)cc1 [Compound 200, N-(4-cyclobutyl-1-methyl-5-(4-(trifluoromethoxy)phenyl)-1H-pyrazol-3-yl)-3,3-difluoro-1-methylcyclobutane-1-carboxamide]	+ (“+” Moderate Activity 0.15-0.7)
Cn1nc(NC(=O)C2(C)CC(F)(F)C2)c(C2CCC2)c1-c1ccc(F)c(F)c1 [Compound 201, N-(4-cyclobutyl-5-(3,4-difluorophenyl)-1-methyl-1H-pyrazol-3-yl)-3,3-difluoro-1-methylcyclobutane-1-carboxamide]	++ (“++” High Activity ≥ 0.7)
Cn1nc(NC(=O)[C@H]2C[C@](C)(F)C2)c(C2CCC2)c1-c1ccc(F)cc1 [Compound 202, (1r,3r)-N-(4-cyclobutyl-5-(4-fluorophenyl)-1-methyl-1H-pyrazol-3-yl)-3-fluoro-3-methylcyclobutane-1-carboxamide]	++ (“++” High Activity ≥ 0.7)
Cn1nc(NC(=O)[C@H]2C[C@](C)(F)C2)c(C2CCC2)c1-c1cnc(C(F)(F)F)s1 [Compound 203, (1r,3r)-N-(4-cyclobutyl-1-methyl-5-(2-(trifluoromethyl)thiazol-5-yl)-1H-pyrazol-3-yl)-3-fluoro-3-methylcyclobutane-1-carboxamide]	+ (“+” Moderate Activity 0.15-0.7)
Cn1nc(NC(=O)C2CC3(C2)CC(F)(F)C3)c(C2CCC2)c1-c1ccc(F)cc1 [Compound 204, N-(4-cyclobutyl-5-(4-fluorophenyl)-1-methyl-1H-pyrazol-3-yl)-6,6-difluorospiro[3.3]heptane-2-carboxamide]	++ (“++” High Activity ≥ 0.7)
Cn1nc(NC(=O)C2CSC2)c(C2CCC2)c1-c1ccc(F)cc1 [Compound 205, N-(4-cyclobutyl-5-(4-fluorophenyl)-1-methyl-1H-pyrazol-3-yl)thietane-3-carboxamide]	++ (“++” High Activity ≥ 0.7)
Cn1nc(NC(=O)[C@H]2C[C@H]2F)c(C2CCC2)c1-c1ccc(F)cc1 [Compound 206, (1R,2R)-N-(4-cyclobutyl-5-(4-fluorophenyl)-1-methyl-1H-pyrazol-3-yl)-2-fluorocyclopropane-1-carboxamide]	+ (“+” Moderate Activity 0.15-0.7)
Cn1nc(NC(=O)[C@H]2CC2(C)C)c(-c2ccc(F)cc2)c1C1CC(F)(F)C1 [Compound 207, (S)-N-(5-(3,3-difluorocyclobutyl)-4-(4-fluorophenyl)-1-methyl-1H-pyrazol-3-yl)-2,2-dimethylcyclopropane-1-carboxamide]	++ (“++” High Activity ≥ 0.7)
Cn1nc(NC(=O)C2(C)CC(F)(F)C2)c(C2CCC2)c1-c1ccc(C(F)(F)F)cc1 [Compound 208, N-(4-cyclobutyl-1-methyl-5-(4-(trifluoromethyl)phenyl)-1H-pyrazol-3-yl)-3,3-difluoro-1-methylcyclobutane-1-carboxamide]	− (“−” No Activity < 0.15)
Cn1nc(NC(=O)C2CC(F)(F)C2)c(C2CCC2)c1-c1ccc(C(F)(F)F)cc1 [Compound 209, N-(4-cyclobutyl-1-methyl-5-(4-(trifluoromethyl)phenyl)-1H-pyrazol-3-yl)-3,3-difluorocyclobutane-1-carboxamide]	+ (“+” Moderate Activity 0.15-0.7)
Cn1nc(NC(=O)C2(C)CC(F)(F)C2)c(C2CCC2)c1-c1ccc(Cl)s1 [Compound 210, N-(5-(5-chlorothiophen-2-yl)-4-cyclobutyl-1-methyl-1H-pyrazol-3-yl)-3,3-difluoro-1-methylcyclobutane-1-carboxamide]	++ (“++” High Activity ≥ 0.7)
Cn1nc(NC(=O)NC2CC(F)(F)C2)c(C2CCC2)c1-c1ccc(Cl)s1 [Compound 211, 1-(5-(5-chlorothiophen-2-yl)-4-cyclobutyl-1-methyl-1H-pyrazol-3-yl)-3-(3,3-difluorocyclobutyl)urea]	++ (“++” High Activity ≥ 0.7)
Cn1nc(NC(=O)NC2CC(F)(F)C2)c(C2CCC2)c1-c1ccc(F)cc1 [Compound 212, 1-(4-cyclobutyl-5-(4-fluorophenyl)-1-methyl-1H-pyrazol-3-yl)-3-(3,3-difluorocyclobutyl)urea]	+ (“+” Moderate Activity 0.15-0.7)
Cn1nc(NC(=O)NC2CC(F)(F)C2)c(C2CCC2)c1-c1ccc(F)c(F)c1 [Compound 213, 1-(4-cyclobutyl-5-(3,4-difluorophenyl)-1-methyl-1H-pyrazol-3-yl)-3-(3,3-difluorocyclobutyl)urea]	++ (“++” High Activity ≥ 0.7)
CCO[C@@H](CC(=O)Nc1nn(C)c(-c2ccc(F)c(F)c2)c1C1CCC1)C(F)(F)F [Compound 214, (S)-N-(4-cyclobutyl-5-(3,4-difluorophenyl)-1-methyl-1H-pyrazol-3-yl)-3-ethoxy-4,4,4-trifluorobutanamide]	++ (“++” High Activity ≥ 0.7)
CO[C@@H](CC(=O)Nc1nn(C)c(-c2ccc(F)c(F)c2)c1C1CCC1)C(F)(F)F [Compound 215, (S)-N-(4-cyclobutyl-5-(3,4-difluorophenyl)-1-methyl-1H-pyrazol-3-yl)-4,4,4-trifluoro-3-methoxybutanamide]	++ (“++” High Activity ≥ 0.7)
COC1(CC(=O)Nc2nn(C)c(-c3ccc(F)c(F)c3)c2C2CCC2)CCC1 [Compound 216, N-(4-cyclobutyl-5-(3,4-difluorophenyl)-1-methyl-1H-pyrazol-3-yl)-2-(1-methoxycyclobutyl)acetamide]	++ (“++” High Activity ≥ 0.7)
Cn1nc(NC(=O)CC2CC(F)(F)C2)c(C2CCC2)c1-c1ccc(F)c(F)c1 [Compound 217, N-(4-cyclobutyl-5-(3,4-difluorophenyl)-1-methyl-1H-pyrazol-3-yl)-2-(3,3-difluorocyclobutyl)acetamide]	++ (“++” High Activity ≥ 0.7)
Cn1nc(NC(=O)CC2CC(F)(F)C2)c(C2CCC2)c1-c1ccc(Cl)s1 [Compound 218, N-(5-(5-chlorothiophen-2-yl)-4-cyclobutyl-1-methyl-1H-pyrazol-3-yl)-2-(3,3-difluorocyclobutyl)acetamide]	++ (“++” High Activity ≥ 0.7)
Cn1nc(NC(=O)[C@@H]2C[C@H]2F)c(C2CCC2)c1-c1ccc(F)cc1 [Compound 219, (1S,2R)-N-(4-cyclobutyl-5-(4-fluorophenyl)-1-methyl-1H-pyrazol-3-yl)-2-fluorocyclopropane-1-carboxamide]	− (“−” No Activity < 0.15)
